Measured values published in US4177264A, “N-benzyl anthracyclines” (priority 1978, dated 1979).
Where two headings read alike, the source gives them in different places.

Assays:
leukemia P388 = assay: Ip P388 leukemia in mice, survival time (NCI Protocol 1,200); type: in vivo; conditions: for response vs control in vivo at 37.5 mg/kg: q4d 5,9,13, 37.5 mg/kg (optimum dose); for response vs control in vivo at 8 mg/kg: q4d 5,9,13, 8 mg/kg
Source text: (§1) Sufficient samples of all but compound (VIII) have been obtained for biological screening, and recent results of tests both in vitro and in vivo are shown in Table 2 below. […] The in vitro results are surprising and appear to be highly significant in that there is an abrupt and unexpected loss of DNA-binding properties in going from N-benzyl to N,N-dibenzyl compounds. ΔTm is the most direct measure of DNA-binding but the inhibition of nucleic acid synthesis is also lost. Most of the anthracyclines bind to DNA, presumably by an intercalation mechanism and are mutagenic. In these N,N-dibenzyl compounds the anti-tumor activity in the mouse screen is retained but the DNA-binding properties are lost.
Highest Mean T/C vs P388 in
^d Ip P388 leukemia treated ip on QD1-9 and Q4D 5,9,13 schedules
according to standard NCI protocols. Assay described in R. I. Geran, N. H
Greenberg, M. M. MacDonald, A. M. Schumacker and B. J. Abbott, Cancer
Chemother. Rep., Part 3, 3, (No. 2), 9 (1972), Protocol 1,200. T/C = rati
of survival time of treated mice to that of untreated controls times 100.
Untreated controls survive about 9 days. For Dnm and Adm, % T/C values ar
means from several dozen tests, with standard deviation up to ±40. For
the Nbenzyl compounds, % T/C values are means from all the tests (1 to 3)
so far, at the optimum dose.

L1210 Cells [1] = assay: Inhibition of RNA synthesis in L1210 cells; type: cell-based; conditions: Mus musculus
Source text: (§2) ^c Assay described in G. Tong, W. W. Lee, D. R. Black and D. W. Henry

L1210 Cells [2] = assay: Inhibition of DNA synthesis in L1210 cells; type: cell-based; conditions: Mus musculus
Source text: as §2

isolated helical DNA = assay: ΔTm of isolated helical DNA (DNA-binding); conditions: difference in DNA melting temperature with and without drug; ~1° weak binding if any, ≥5° significant binding
Source text: as §1
^b ΔTm values represent the difference in temperature
between that at which the DNA denatures (or melts) without the drug and
that at which denaturing occurs in the presence of the drug;

[3] = Mus musculus, P388, ip, mean from 1 to 3 tests, read-out: Highest Mean T/C vs P388 in Mice
[4] = L1210 cells, RNA synthesis, read-out: Inhib of Synth, RNA, ED50
[5] = L1210 cells, DNA synthesis, read-out: Inhib of Synth, DNA, ED50
[6] = Mus musculus, P388, ip, read-out: Highest Mean T/C vs P388 in Mice
[7] = L1210, read-out: Inhib of Synth, RNA, ED50
[8] = L1210, read-out: Inhib of Synth, DNA, ED50
[9] = Mus musculus, P388, ip, qd 1-9, 6.25 mg/kg (optimum dose), mean from 1 to 3 tests, read-out: Highest Mean T/C vs P388 in Mice
[10] = Mus musculus, P388, ip, mean from several dozen tests, SD up to ±40, read-out: Highest Mean T/C vs P388 in Mice

For `COc1cccc2c1C(=O)c1c(O)c3c(c(O)c1C2=O)C[C@@](O)(C(C)=O)C[C@@H]3O[C@H]1C[C@H](N(Cc2ccccc2)Cc2ccccc2)[C@H](O)[C@H](C)O1` [Compound V, N,N-Dibenzyldaunomycin], the response vs control in vivo at 37.5 mg/kg (leukemia P388; [3]) was 227%, the response vs control in vivo at 25 mg/kg (leukemia P388; Mus musculus, P388, ip, qd 1-9, 25 mg/kg (optimum dose), mean from 1 to 3 tests, read-out: Highest Mean T/C vs P388 in Mice) was 259% and the “activity against leukemia P388 in mice (in words)” value (leukemia P388; ip, mice) was “clearly the best”. The IC50 (L1210 Cells [1]; [4]) was 10 µM, the IC50 (L1210 Cells [2]; [5]) was greater than 100 µM and the ΔTm (isolated helical DNA) was 1.35 °C.
`COc1cccc2c1C(=O)c1c(O)c3c(c(O)c1C2=O)C[C@@](O)(C(C)O)C[C@@H]3O[C@H]1C[C@H](N(Cc2ccccc2)Cc2ccccc2)[C@H](O)[C@H](C)O1` (stereo partly shown) [Compound VI, N,N-Dibenzyl-13-dihydrodaunomycin] showed a response vs control in vivo at 50 mg/kg (leukemia P388; Mus musculus, P388, ip, q4d 5,9,13, 50 mg/kg (optimum dose), mean from 1 to 3 tests, read-out: Highest Mean T/C vs P388 in Mice) of 233%, a response vs control in vivo at 40 mg/kg (leukemia P388; Mus musculus, P388, ip, qd 1-9, 40 mg/kg (optimum dose), mean from 1 to 3 tests, read-out: Highest Mean T/C vs P388 in Mice) of 229% and an IC50 (L1210 Cells [1]; [4]) of 7.6 µM. It also gave an IC50 (L1210 Cells [2]; L1210 cells, DNA synthesis, (susp), read-out: Inhib of Synth, DNA, ED50 (susp)) of 220 µM and a ΔTm (isolated helical DNA) of 0.6 °C.
For `COc1cccc2c1C(=O)c1c(O)c3c(c(O)c1C2=O)C[C@@](O)(C(=O)CO)C[C@@H]3O[C@H]1C[C@H](N(Cc2ccccc2)Cc2ccccc2)[C@H](O)[C@H](C)O1` [Compound VII, N,N-Dibenzyladriamycin], the response vs control in vivo at 6.25 mg/kg (leukemia P388; [6]) was 175%, the IC50 (L1210 Cells [1]; [7]) was 4.8 µM and the IC50 (L1210 Cells [2]; [8]) was 110 µM. For the same compound, the ΔTm (isolated helical DNA) was -1.2 °C.
`COc1cccc2c1C(=O)c1c(O)c3c(c(O)c1C2=O)C[C@@](O)(C(C)=O)C[C@@H]3O[C@H]1C[C@H](NCc2ccccc2)[C@H](O)[C@H](C)O1` [I, N-Benzyldaunomycin] gave a response vs control in vivo at 6.25 mg/kg (leukemia P388; [6]) of 187%, a response vs control in vivo at 18.8 mg/kg (leukemia P388; [6]) of 226% and an IC50 (L1210 Cells [1]; [7]) of 0.17 µM. For the same compound, the IC50 (L1210 Cells [2]; [8]) was 1.6 µM and the ΔTm (isolated helical DNA) was 10.2 °C.
`COc1cccc2c1C(=O)c1c(O)c3c(c(O)c1C2=O)C[C@@](O)(C(C)O)C[C@@H]3O[C@H]1C[C@H](NCc2ccccc2)[C@H](O)[C@H](C)O1` (stereo partly shown) [II, N-Benzyl-13-dihydrodaunomycin] showed a response vs control in vivo at 6.25 mg/kg (leukemia P388; [9]) of 226%, an IC50 (L1210 Cells [1]; [4]) of 0.32 µM and an IC50 (L1210 Cells [2]; [5]) of 1.7 µM. For the same compound, the ΔTm (isolated helical DNA) was 6.25 °C.
In the case of `COc1cccc2c1C(=O)c1c(O)c3c(c(O)c1C2=O)C[C@@](O)(C(=O)CO)C[C@@H]3O[C@H]1C[C@H](NCc2ccccc2)[C@H](O)[C@H](C)O1` [III, N-Benzyladriamycin], the response vs control in vivo at 18.8 mg/kg (leukemia P388; Mus musculus, P388, ip, q4d 5,9,13, 18.8 mg/kg (optimum dose), mean from 1 to 3 tests, read-out: Highest Mean T/C vs P388 in Mice) is reported as 200%, the response vs control in vivo at 6.25 mg/kg (leukemia P388; [9]) is reported as 224% and the IC50 (L1210 Cells [1]; [4]) is reported as 0.09 µM. It also gave an IC50 (L1210 Cells [2]; [5]) of 0.65 µM and a ΔTm (isolated helical DNA) of 11.3 °C.
Work on `COc1cccc2c1C(=O)c1c(O)c3c(c(O)c1C2=O)C[C@@](O)(C(O)CO)C[C@@H]3O[C@H]1C[C@H](NCc2ccccc2)[C@H](O)[C@H](C)O1` (stereo partly shown) [IV, N-Benzyl-13-dihydroadriamycin] yielded a response vs control in vivo at 37.5 mg/kg (leukemia P388; [3]) of 143%, a response vs control in vivo at 1.56 mg/kg (leukemia P388; Mus musculus, P388, ip, qd 1-9, 1.56 mg/kg (optimum dose), mean from 1 to 3 tests, read-out: Highest Mean T/C vs P388 in Mice) of 196% and an IC50 (L1210 Cells [1]; [4]) of 0.29 µM. For the same compound, the IC50 (L1210 Cells [2]; [5]) was 1.4 µM and the ΔTm (isolated helical DNA) was 7.6 °C.
`COc1cccc2c1C(=O)c1c(O)c3c(c(O)c1C2=O)C[C@@](O)(C(C)=O)C[C@@H]3O[C@H]1C[C@H](N)[C@H](O)[C@H](C)O1` [IX, Daunomycin, reference compound] gave a response vs control in vivo at 8 mg/kg (leukemia P388; [10]) of 134%, a response vs control in vivo at 0.5 mg/kg (leukemia P388; Mus musculus, P388, ip, qd 1-9, 0.5 mg/kg, mean from several dozen tests, SD up to ±40, read-out: Highest Mean T/C vs P388 in Mice) of 167% and an IC50 (L1210 Cells [1]; [4]) of 0.3 µM. For the same compound, the IC50 (L1210 Cells [2]; [5]) was 1 µM.
`COc1cccc2c1C(=O)c1c(O)c3c(c(O)c1C2=O)C[C@@](O)(C(=O)CO)C[C@@H]3O[C@H]1C[C@H](N)[C@H](O)[C@H](C)O1` [X, Adriamycin, reference compound] gave a response vs control in vivo at 8 mg/kg (leukemia P388; [10]) of 157%, a response vs control in vivo at 1 mg/kg (leukemia P388; Mus musculus, P388, ip, qd 1-9, 1.0 mg/kg, mean from several dozen tests, SD up to ±40, read-out: Highest Mean T/C vs P388 in Mice) of 193% and an IC50 (L1210 Cells [1]; [4]) of 0.67 µM. It also gave an IC50 (L1210 Cells [2]; [5]) of 1.5 µM and a ΔTm (isolated helical DNA) of 13.4 °C.
